Test systems include SW-620; SK-MEL-2; MOLT-4; SN12C; NCI/ADR-RES; COLO 205; SK-MEL-28; Hs-578T; IGROV-1; CAKI-1; OVCAR-8; DU-145; SNB-75; SNB-19; CCRF-CEM; HCT-15; MCF7; MDA-MB-435; NCI-H23; 786-0.
Common to all, as to assay: NCI anticancer screen, dose series, 48 h

Molecules are shown by their SMILES.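 Test compounds were applied to cells in 96-well plates for 48 hours at 5 doses. Here, GI50 denotes the concentration required for 50% inhibition of growth.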 Active and inactive are the calls of the source. Cut-off read from the data, not from the text of the source: active = GI50 up to about 1.1 µM and inactive = higher.

Take `COc1ccc2c(c1)/C(=C\c1c(Cl)n(-c3ccccc3)c3ccccc13)C(=O)N2`: the GI50 in the experiment on SW-620 is 4.75 µM (inactive); with SK-MEL-2, 6.73 µM (inactive); in the experiment with MOLT-4 it was 2.23 µM (inactive); in the experiment on SN12C, 13.6 µM (inactive); in the experiment on NCI/ADR-RES, 2.49 µM (inactive); in the experiment on COLO 205 it was 3.61 µM (inactive). Further, the GI50 in the experiment with SK-MEL-28 was 9.31 µM (inactive); in the experiment on Hs-578T, 0.479 µM (active); in the experiment with IGROV-1, 4.12 µM (inactive); with CAKI-1 it was 4.08 µM (inactive); in the experiment with OVCAR-8, 5.77 µM (inactive); with DU-145 it was 5.89 µM (inactive). The GI50 in the experiment on SNB-75 is 6.59 µM (inactive); in the experiment with SNB-19 it was 3.67 µM (inactive); in the experiment with CCRF-CEM, 3.85 µM (inactive); in the experiment with HCT-15, 2.36 µM; with MCF7 it was 3.45 µM (inactive); with MDA-MB-435, 1.64 µM (inactive). In addition, the GI50 in the experiment with NCI-H23 was 6.01 µM (inactive); with 786-0, 8.45 µM (inactive).
Take `Cc1ccc(O)c(-c2csc(NCN3CCN(CNc4nc(-c5cc(C)ccc5O)cs4)CC3)n2)c1`: the GI50 was 77.3 µM (inactive) in the experiment with SW-620; > 100 µM (inactive) in the experiment on SK-MEL-2; 15.2 µM (inactive) in the experiment on MOLT-4; > 100 µM (inactive) in the experiment with SN12C; > 100 µM (inactive) with NCI/ADR-RES; > 100 µM (inactive) with COLO 205. Further, the GI50 in the experiment on SK-MEL-28, in the experiment on Hs-578T, in the experiment on IGROV-1, in the experiment with CAKI-1, in the experiment on OVCAR-8 and in the experiment with DU-145 was > 100 µM (inactive) throughout. Moreover, the GI50 in the experiment with SNB-75 was > 100 µM (inactive); in the experiment on SNB-19 it was > 100 µM (inactive); with CCRF-CEM it was 20.5 µM (inactive); in the experiment with HCT-15 it was over 100 µM; in the experiment with MCF7, > 100 µM (inactive); in the experiment on MDA-MB-435, > 100 µM (inactive). Further, the GI50 in the experiment on NCI-H23 and in the experiment with 786-0 was > 100 µM (inactive) each time.
Turning to `CCc1nc2ccc(NCCN(C)C)c3c(=O)c4ccccc4n1c23`, the GI50 in the experiment with SW-620 was 0.305 µM (active); in the experiment with SK-MEL-2, 3.07 µM (inactive); in the experiment on MOLT-4 it was 0.175 µM (active); with SN12C it was 0.404 µM (active); with NCI/ADR-RES, 0.431 µM (active); with COLO 205 it was 0.307 µM (active). For the same compound, the GI50 was 2.44 µM (inactive) with SK-MEL-28; 1.78 µM (inactive) with Hs-578T; 0.265 µM (active) with IGROV-1; 1.56 µM (inactive) in the experiment with CAKI-1; 0.515 µM (active) in the experiment on OVCAR-8; 0.656 µM (active) in the experiment with DU-145. In addition, the GI50 with SNB-75 was 3 µM (inactive); in the experiment with SNB-19 it was 2.57 µM (inactive); in the experiment with CCRF-CEM, 0.586 µM (active); in the experiment with HCT-15, 0.456 µM; with MCF7 it was 2.11 µM (inactive); in the experiment on MDA-MB-435, 1 µM (active). In addition, the GI50 in the experiment on NCI-H23 was 1.16 µM (inactive); in the experiment with 786-0, 0.479 µM (active).
With `CCOC(=O)C1(C/C=C/CCl)CCCC1=O` (stereo not given), the GI50 in the experiment with SW-620 is 20.3 µM (inactive); in the experiment on SK-MEL-2, 19 µM (inactive); in the experiment with MOLT-4 it was 35.1 µM (inactive); in the experiment on SN12C it was 24.1 µM (inactive); in the experiment on NCI/ADR-RES it was 19.5 µM (inactive); with COLO 205, 26 µM (inactive). Further, the GI50 in the experiment on SK-MEL-28 was 23 µM (inactive); with Hs-578T it was 44 µM (inactive); with IGROV-1, 18.3 µM (inactive); in the experiment with CAKI-1 it was 29.6 µM (inactive); with OVCAR-8 it was 20.8 µM (inactive); in the experiment with DU-145, 31.1 µM (inactive). In addition, the GI50 was 19.8 µM (inactive) in the experiment on SNB-75; 23 µM (inactive) in the experiment with SNB-19; 19.5 µM (inactive) in the experiment on CCRF-CEM; 18.9 µM in the experiment on HCT-15; 16.4 µM (inactive) in the experiment on MCF7; 20.3 µM (inactive) with MDA-MB-435. Further, the GI50 in the experiment on NCI-H23 is 18.8 µM (inactive); in the experiment on 786-0, 22.8 µM (inactive).
As for `CC(=O)Oc1ccn2nc(C)c(Br)c2c1Br`, the GI50 was 30.5 µM (inactive) in the experiment with SW-620; 27.5 µM (inactive) in the experiment with SK-MEL-2; 15.3 µM (inactive) with MOLT-4; 27.7 µM (inactive) in the experiment on SN12C; 47.6 µM (inactive) in the experiment on NCI/ADR-RES; 19.4 µM (inactive) with COLO 205. In addition, the GI50 with SK-MEL-28 was 21.4 µM (inactive); with Hs-578T it was 29.6 µM (inactive); with IGROV-1, 32.5 µM (inactive); with CAKI-1 it was 2.88 µM (inactive); in the experiment with OVCAR-8, 29.4 µM (inactive); with DU-145 it was 59.4 µM (inactive). Also, the GI50 in the experiment with SNB-75 is 22.1 µM (inactive); in the experiment on SNB-19, 49.9 µM (inactive); in the experiment on CCRF-CEM it was 21.6 µM (inactive); with HCT-15 it was 16.9 µM; in the experiment on MCF7, 17.8 µM (inactive); in the experiment with MDA-MB-435, 17.9 µM (inactive). The GI50 in the experiment on NCI-H23 is 18.3 µM (inactive); with 786-0 it was 36.5 µM (inactive).
As for `CC1(C)OC[C@@H](/C=C\CCO[Si](c2ccccc2)(c2ccccc2)C(C)(C)C)N1C(=O)c1ccccc1`, the GI50 in the experiment on SW-620 is 14.5 µM (inactive); in the experiment on SK-MEL-2 it was 5.24 µM (inactive); in the experiment with MOLT-4, 3.13 µM (inactive); in the experiment with SN12C, 11.1 µM (inactive); with NCI/ADR-RES it was 9.14 µM (inactive); in the experiment with COLO 205, 8.32 µM (inactive). Besides, the GI50 was 30.3 µM (inactive) in the experiment with SK-MEL-28; 12.5 µM (inactive) in the experiment on Hs-578T; 28.6 µM (inactive) in the experiment on IGROV-1; 9.4 µM (inactive) in the experiment with CAKI-1; 15.8 µM (inactive) with OVCAR-8; 18.8 µM (inactive) with DU-145. The GI50 is > 100 µM (inactive) in the experiment with SNB-75; 17.9 µM (inactive) with SNB-19; 6.21 µM (inactive) in the experiment with CCRF-CEM; 5.13 µM in the experiment on HCT-15; 6.32 µM (inactive) with MCF7; 13.2 µM (inactive) in the experiment on MDA-MB-435. The GI50 was 4.61 µM (inactive) in the experiment with NCI-H23 and 11.6 µM (inactive) in the experiment with 786-0.
Take `Cc1nc(Nc2ccccc2Cl)sc1C(=O)CC(=O)C(=O)Nc1c(Cl)cccc1Cl`: the GI50 in the experiment on SW-620 is 26.5 µM (inactive); in the experiment with SK-MEL-2 it was 16.1 µM (inactive); with MOLT-4, 24 µM (inactive); in the experiment on SN12C, 44 µM (inactive); in the experiment on NCI/ADR-RES, 22.3 µM (inactive); in the experiment on COLO 205, 18.6 µM (inactive). Further, the GI50 was 26.2 µM (inactive) in the experiment on SK-MEL-28; 25.2 µM (inactive) in the experiment on Hs-578T; 15.8 µM (inactive) in the experiment with IGROV-1; 84.1 µM (inactive) in the experiment on CAKI-1; 29.4 µM (inactive) in the experiment on OVCAR-8; 27 µM (inactive) with DU-145. The GI50 in the experiment with SNB-75 is 24.4 µM (inactive); with SNB-19, 63.8 µM (inactive); in the experiment on CCRF-CEM, 28.4 µM (inactive); in the experiment with HCT-15, 33.3 µM; in the experiment on MCF7 it was 28.2 µM (inactive); with MDA-MB-435, 22.9 µM (inactive). Moreover, the values for the GI50 with NCI-H23 and in the experiment with 786-0 were 50.1 µM (inactive) and 24.3 µM (inactive), respectively.
As to `O=C(/C(=C/c1cccs1)c1ccccc1)c1ccccc1`, the GI50 in the experiment with SW-620 was > 100 µM (inactive); in the experiment on SK-MEL-2, 40.2 µM (inactive); in the experiment with MOLT-4, 82.4 µM (inactive); in the experiment on SN12C, 82.2 µM (inactive); in the experiment on NCI/ADR-RES, > 100 µM (inactive); in the experiment with COLO 205, > 100 µM (inactive). Further, the GI50 with SK-MEL-28, in the experiment with Hs-578T, in the experiment on IGROV-1, in the experiment with CAKI-1, with OVCAR-8 and with DU-145 was > 100 µM (inactive) each time. Further, the GI50 with SNB-75 is 37.7 µM (inactive); with SNB-19, 30.5 µM (inactive); in the experiment on CCRF-CEM, > 100 µM (inactive); in the experiment with HCT-15, over 100 µM; in the experiment on MCF7 it was > 100 µM (inactive); in the experiment on MDA-MB-435 it was > 100 µM (inactive). Moreover, the GI50 in the experiment with NCI-H23 is 76.6 µM (inactive); with 786-0, 26.2 µM (inactive).
As for `CCOC(=O)CCC(NC(=O)c1ccc(Nc2nc3cc(C(F)(F)F)ccc3nc2-c2ccccc2)cc1)C(=O)OCC` (stereo not given), the GI50 with SW-620 is 30.5 µM (inactive); in the experiment on SK-MEL-2, > 100 µM (inactive); in the experiment on MOLT-4 it was 16.9 µM (inactive); with SN12C it was 19.3 µM (inactive); in the experiment on NCI/ADR-RES, 19.5 µM (inactive); with COLO 205 it was 22.4 µM (inactive). Also, the GI50 in the experiment on SK-MEL-28 is 26.5 µM (inactive); in the experiment on Hs-578T, 19.7 µM (inactive); in the experiment on IGROV-1, 14.7 µM (inactive); in the experiment with CAKI-1, 20.5 µM (inactive); with OVCAR-8 it was 20.6 µM (inactive); in the experiment on DU-145, 24.5 µM (inactive). In addition, the GI50 was 15.2 µM (inactive) with SNB-75; 21.5 µM (inactive) in the experiment on SNB-19; 27.8 µM (inactive) in the experiment with CCRF-CEM; 24.7 µM in the experiment with HCT-15; 20.6 µM (inactive) with MCF7; 28.8 µM (inactive) in the experiment with MDA-MB-435. For the same compound, the figures for the GI50 in the experiment with NCI-H23 and with 786-0 were 20.7 µM (inactive) and 29.6 µM (inactive), respectively.
For `c1ccc2cc(CNCCCCNCCCNCc3ccc4ccccc4c3)ccc2c1`, the GI50 in the experiment on SW-620 was 0.324 µM (active); in the experiment on SK-MEL-2, 2.07 µM (inactive); in the experiment on MOLT-4 it was 0.256 µM (active); in the experiment with SN12C, 0.733 µM (active); in the experiment with NCI/ADR-RES, 1.68 µM (inactive); in the experiment on COLO 205, 0.277 µM (active). For the same compound, the GI50 with SK-MEL-28 is 1.69 µM (inactive); in the experiment on Hs-578T, 0.167 µM (active); in the experiment on IGROV-1 it was 0.585 µM (active); in the experiment on CAKI-1, 1.81 µM (inactive); with OVCAR-8 it was 1.69 µM (inactive); in the experiment on DU-145, 1.27 µM (inactive). The GI50 was 1.5 µM (inactive) with SNB-75; 1.43 µM (inactive) in the experiment on SNB-19; 0.351 µM (active) in the experiment with CCRF-CEM; 0.824 µM with HCT-15; 0.548 µM (active) in the experiment with MCF7; 1.45 µM (inactive) with MDA-MB-435. The GI50 is 1.8 µM (inactive) in the experiment with NCI-H23 and 0.423 µM (active) with 786-0.

For the origin of these results see ChEMBL document CHEMBL1201862, “PubChem BioAssay data set” (2004).
